{
  "source": "patent US20260138981A1",
  "about": "“DIHYDROFOLATE REDUCTASE INHIBITORS FOR ANTI-BIOTIC RESISTANT INFECTIONS” (THE TRUSTEES OF PRINCETON UNIVERSITY, priority 2022, published 2026)",
  "key": {"[1]": {"test_system": "WI-38 cells", "experiment": "Mammalian cell cytotoxicity (CyQUANT)", "assay_type": "cell-based", "settings": "72 hours", "experimental": "(§1) FIG. 5D provides IC50 of fluorofolin against in vitro mammalian cell lines relative to the IC50 of IRS-16. HLF: human lung fibroblast, HK-2: human kidney epithelial, PBMC: peripheral blood mononuclear cell, WI-38: Embryonic lung tissue.\n(§2) After 24 hours, DMSO or compounds were added in 3-fold dilutions and incubated for 72 hours. For PBMC, CellTiter-Glo Reagent was added in equal volume and incubated for 30 min after which luminescence was read. For other cell types, CyQUANT Detection Reagent was added in equal volume and incubated for 1 hour after which fluorescence was read with standard green filter set (508/527 nm ex). Cell toxicity was evaluated by Pharmaron, Inc. (Beijing, […])."}, "[2]": {"test_system": "E. coli lptd34213", "experiment": "Growth with thymidine supplementation", "assay_type": "cell-based", "settings": "fluorofolin 50 μg/mL, 0.3 mM thymidine; also with SMX", "experimental": "FIG. 6F quantifies P. aeruginosa PA14 or E. coli lptd4213 treated with fluorofolin 50 μg/mL in the presence or absence of 0.3 mM thymidine.\nFIG. 6G quantifies E. coli lptd4213 treated with fluorofolin 50 μg/mL and SMX (78.1 μg/mL) in the presence or absence of 0.3 mM thymidine or 0.3 mM TMI supplementation, Curves represent optical at 600 nm (OD600) of 2 biological replicates. Mean±SD are shown.\n(§3) Where listed, growth media were prepared according manufacturer recommendations: LB Broth and LB Broth supplemented with 0.3 mM thymine (BD Biosciences 244610, Alfa Aesar A15879), 0.3 mM methionine (Sigma-Aldrich M9625), 0.3 mM inosine (EMD Millipore 4060), Mueller Hinton II Broth (Cation-Adjusted)/(CAMHB) (BD 212322) or 0.3 mM thymidine (Sigma-Aldrich T1895), Gutnick Minimal Media (1.0 g/L K2SO4, 13.5 g/L K2HPO4, 4.7 g/L KH2PO4, 0.1 g/L of MgSO4-7H2O, 10 mM NH4Cl as a nitrogen source, and 0.4% w/v glucose as a carbon source)^62."}, "[3]": {"test_system": "sheep red blood cells", "method": "Percent hemolysis was measured using Abs405 compared to 100% lysis control by Triton X-100 (1% v/v). Mean±SD of technical triplicates are shown.\nSamples were treated at 37° C. with shaking for 1 hour and then centrifuged. Supernatants were collected and absorbances were measured at 405 nm in a Tecan InfiniteM200 Pro (Männedorf, CH) microplate reader. Percentage hemolysis was calculated compared to 100% lysis by Triton X-100 (1% v/v) (Sigma-Aldrich X100RS)."}, "[4]": {"test_system": "P. aeruginosa PA14", "experiment": "Checkerboard assay of fluorofolin and sulfamethoxazole", "assay_type": "cell-based", "experimental": "FIG. 2B is a Checkerboard assay of fluorofolin and sulfamethoxazole. Z-values represent fractional inhibitory concentrations (FICs). FICs were determined by dividing the MIC of each drug when used in combination by the MIC when used alone. FIC of less than or equal to 0.5 is considered a synergistic effect.\nCells were seeded in a similar manner as described above for MIC calculations. Sulfamethoxazole (Chem-Impex 00821) was diluted 1:2 down the rows of the plate, while fluorofolin was diluted 1:2 down the column of the plate. Fractional inhibitory concentrations (FICs) were calculated as [fluorofolin]/MICFluorofolin+[SMX]/MICSMX where [fluorofolin] and [SMX] are the concentrations of compounds in given well, which are dividing by the concentration of drug at the MIC for each compound. FIC values less than or equal to 0.5 are considered synergistic."}, "[5]": {"molecular_target": "T1, purified human DHFR (Homo sapiens, UniProt P00374)", "T1 construct": "purchased R&D Systems 8456-DR", "T1 sequence (P00374 whole entry)": "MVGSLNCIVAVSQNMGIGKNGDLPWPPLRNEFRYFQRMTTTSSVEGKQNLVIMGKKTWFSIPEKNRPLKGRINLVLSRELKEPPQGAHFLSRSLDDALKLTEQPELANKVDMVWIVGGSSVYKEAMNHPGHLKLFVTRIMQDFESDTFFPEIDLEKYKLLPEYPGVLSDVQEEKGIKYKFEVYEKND", "experiment": "Human DHFR in vitro assay", "assay_type": "biochemical", "experimental": "FIG. 1E is an analogous assay to FIG. 2B using purified human DHFR.\nHuman purified DHFR was purchased from R&D Systems (8456-DR). DHFR activity was assayed by monitoring the decrease in absorbance by NADPH at […]. DHFR enzyme (0.5 μg/mL), dihydrofolic acid (100 μM), and different concentrations of methotrexate, fluorofolin, or DMSO control was dissolved in 200 μL of Tris buffer (pH 7.5, Tris salt concentration 25 mM). Reaction was initiated by adding NADPH in a 10× stock (1 mM for final concentration 100 μM), and absorbance at 340 nm was monitored over time by Cytation 5 reader (Agilent). Activity was normalized to the DMSO control."}, "[6]": {"experiment": "Maximum tolerated dose (MTD)", "assay_type": "in vivo, mouse", "settings": "administered subcutaneously (SC), CD-1 mice", "experimental": "P. aeruginosa thigh infection model and MTD studies: Care and handling of Female 5-6-week-old CD-1 conformed to institutional animal care and use policies as carried out at University of North Texas Health Science Center (Fort Worth, Texas). Rodents were fed either base chow or base diet supplemented with 1.8 g/kg thymidine (Sigma T9250) obtained from Envigo starting two days before infection.\nMTD was determined through administration of compounds at increasing dosage until the maximum dose before adverse reactions were observed. Doses were increased in a stepwise manner from 1 mg/kg to 5, 10, 25, 50 mg/kg. […] MTD was evaluated by the University of North Texas Health Science Center (Fort Worth, Texas)."}, "[7]": {"test_system": "E. coli MG1655", "experiment": "Growth with TMI supplementation", "assay_type": "cell-based", "settings": "E. coli MG1655, fluorofolin 2×MIC, 0.3 mM thymine, methionine, inosine", "experimental": "(§4) FIGS. 3A and 3B characterize the growth of E. coli MG1655 and P. aeruginosa PA14 respectively in 0.3 mM thymine, methionine, and inosine (TMI) supplemented media and treated with fluorofolin at 2×MIC or DMSO. Curves represent optical at 600 nm (OD600) of 2 biological replicates. Mean±SD are shown.\nas §3"}, "[8]": {"test_system": "P. aeruginosa PA14", "experiment": "Growth with TMI supplementation", "assay_type": "cell-based", "settings": "P. aeruginosa PA14, fluorofolin 2×MIC, 0.3 mM TMI", "experimental": "as §4, §3"}, "[9]": {"test_system": "S. epidermidis, E. cloacae, E. faecalis, K. pneumoniae, and S. aureus", "experiment": "Growth of other species with TMI supplementation", "assay_type": "cell-based", "settings": "fluorofolin 2×MIC, 0.3 mM TMI", "experimental": "as §3"}, "[10]": {"test_system": "PBMC", "assay_type": "cell-based", "settings": "72 h", "experimental": "as §1, §2"}},
  "data": [
    {"smiles": "Nc1nc(N)c2c(ccc3c2ccn3Cc2ccnc(F)c2)n1", "note": "[fluorofolin]", "values": [
      {"measurement": "increase in IC50 compared to IRS-16", "setting": "[1]", "result": 58.5, "unit": "fold"},
      {"measurement": "rescue of growth inhibition by thymidine supplementation alone", "setting": "[2]", "result": "Rescue from fluorofolin inhibition was also shown"},
      {"measurement": "permeabilization of red blood cell membranes (hemolysis)", "setting": "[3]", "result": "did not cause significant permeabilization"},
      {"measurement": "MIC", "setting": "[4]; Pseudomonas aeruginosa, PA14, SMX 156 μg/mL, read-out: MIC of fluorofolin in the presence of SMX", "result": 0.4, "unit": "mg/L"},
      {"measurement": "synergy (FIC, checkerboard)", "setting": "[4]; combination of fluorofolin and sulfamethoxazole (SMX), PA14", "result": "significant synergy"},
      {"measurement": "IC50", "setting": "[5]", "result": "0.014 ± 0.004", "unit": "µM"},
      {"measurement": "maximum tolerated dose", "setting": "[6]", "result": 25, "unit": "mg/kg"},
      {"measurement": "rescue of growth inhibition by TMI supplementation", "setting": "[7]", "result": "could also be rescued"},
      {"measurement": "rescue of growth inhibition by TMI supplementation", "setting": "[8]", "result": "unable to rescue"},
      {"measurement": "rescue of growth inhibition by TMI supplementation", "setting": "[9]", "result": "could also be rescued from fluorofolin growth inhibition"},
      {"measurement": "increase in IC50 compared to IRS-16", "setting": "[10]", "result": 9.6, "unit": "fold"}
    ]}
  ]
}
